Assay results as given in publication PMC3059644 (Frontiers in Psychiatry, 2010).
Like-named read-outs stand apart in the source and are kept apart here. One block for each compound: values may come before it.

Tests used:
[1] = system: [3H]CGS21680 binding sites; parameters: method as in Cunha et al., 1996, 1997; conditions: ref Cunha et al., 1996, 1997, cited from earlier work
[2] = system: adenosine A2A receptors versus A1 receptors; conditions: cited from earlier work
adenosine A2A receptors = conditions: read-out: Ki for adenosine A2A receptors; ref Hutchison et al., 1989; cited from earlier work
adenosine A1 receptors = biological target: adenosine A1 receptors; parameters: method as in Hutchison et al., 1989; conditions: ref Hutchison et al., 1989; cited from earlier work
[3] = biological target: T1, typical adenosine A2A receptors (Rattus norvegicus, UniProt P30543); assay: [3H]CGS21680 specific binding in rat hippocampus in the presence of DPCPX (typical sites); conditions: DPCPX used to isolate typical sites
T1 sequence (P30543 whole entry): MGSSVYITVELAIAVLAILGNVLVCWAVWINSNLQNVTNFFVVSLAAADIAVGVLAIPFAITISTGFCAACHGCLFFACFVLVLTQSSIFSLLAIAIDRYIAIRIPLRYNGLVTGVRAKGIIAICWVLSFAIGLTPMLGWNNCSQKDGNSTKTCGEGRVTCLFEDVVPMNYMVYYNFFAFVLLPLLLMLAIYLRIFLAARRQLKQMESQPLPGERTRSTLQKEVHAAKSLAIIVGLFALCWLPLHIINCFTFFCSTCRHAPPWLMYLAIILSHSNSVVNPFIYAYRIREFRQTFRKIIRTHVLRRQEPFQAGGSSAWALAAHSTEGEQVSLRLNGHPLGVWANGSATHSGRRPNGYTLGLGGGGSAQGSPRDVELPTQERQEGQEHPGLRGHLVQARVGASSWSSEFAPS

adenosine A2B receptor = conditions: cited from earlier work
[4] = system: atypical adenosine A2A receptors; assay: Displacement of [3H]CGS21680 binding in rat hippocampus in the presence of CSC (atypical sites)
Protocol: The collected tissues were homogenized in about 25 volumes of incubation buffer and centrifuged at 40,000 g for 10 min at 4°C. The pellet was resuspended in the same fresh buffer, homogenized, centrifuged once again and the final pellet stored at −80°C until use. […] Prior to the competition binding assay, the pellet was resuspended in appropriate buffer at the wanted protein concentration and membrane suspension incubated with 5 U/ml adenosine deaminase (ADA, Sigma-Aldrich) for 30 min at 37°C to remove endogenous adenosine. The protein concentration of membrane suspension was determined using the Bradford method (Pierce, Rockford, IL, USA) with bovine albumin as standard. Competition binding experiments with [^3H]CGS21680 were performed by incubating membranes (50–100 μg of protein/sample) with a single concentrations of [^3H]CGS21680 (30 nM) for 2 h at room temperature in a solution containing 50 mM Tris-HCl, pH 7.4, 10 mM MgCl2 and 5 U/ml ADA and various concentrations (ranging from 10^−5 to 10^−12 M) of test compounds. Non-specific binding was determined in the presence of an excess of cold 2-chloroadenosine (Sigma-Aldrich). The binding reactions were stopped by vacuum filtration through GF/B filters, followed by washing of the filters with ice-cold washing buffer (same composition as the binding buffer) and filter-bound radioactivity measured by scintillation spectrometry. Competition studies were performed with the various compounds alone or in the presence of an excess of either CSC or DPCPX (both from Sigma-Aldrich). The compounds were dissolved in 100% DMSO (Sigma-Aldrich) at a concentration of 10 mM and stored at −20°C. An intermediate 100 μM working solution was prepared in water and subsequent scalar working solutions in incubation buffer.

[5] = biological target: atypical adenosine A2A receptors; assay: Displacement of [3H]CGS21680 binding in rat striatum in the presence of CSC (atypical sites)
[6] = biological target: T2, total adenosine A2A receptors (Rattus norvegicus, UniProt P30543); assay: Displacement of [3H]CGS21680 binding in rat hippocampal membranes, compounds alone (total)
T2 sequence (P30543 whole entry): as above

[7] = biological target: T2, total adenosine A2A receptors; assay: Displacement of [3H]CGS21680 binding in rat striatal membranes, compounds alone (total)
A1 and A2A receptors = conditions: transfected cells; ref Minetti et al., 2005; cited from earlier work
[8] = biological target: T1, typical adenosine A2A receptors; assay: Displacement of [3H]CGS21680 binding in rat striatum in the presence of DPCPX (typical sites)

Structure (SMILES): Cn1c(=O)c2c(nc(C=Cc3cccc(Cl)c3)n2C)n(C)c1=O [CSC, 8-(3-chlorostyryl)-caffeine]
loss of potency in inhibiting [3H]CGS21680 binding in hippocampus and cortex versus striatal membranes [1]: 10 fold
A2A/A1 selectivity ([2]; ref Jacobson et al., 1993): 520 fold

Structure (SMILES): CCNC(=O)[C@H]1O[C@@H](n2cnc3c(N)nc(NCCc4ccc(CCC(=O)O)cc4)nc32)[C@H](O)[C@@H]1O [CGS21680, 2-p-(2-carboxyethyl)phenethyl-amino-5’-N-ethylcarbox-amidoadenosine]
Ki (adenosine A2A receptors): ~22 nM
Ki (adenosine A1 receptors): ~3100 nM

effect on [3H]CGS21680 specific binding in hippocampus [3]: completely abolished
Structure (SMILES): CCCn1c(=O)c2[nH]c(C3CCCC3)nc2n(CCC)c1=O [DPCPX, 8-cyclopentyl-1,3-dipropylxanthine]
concentrations displacing most of the [3H]CGS21680 binding in hippocampus and cortex ([1]; hippocampus and cortex, not striatum): low nanomolar concentrations

Structure (SMILES): Nc1nc(NCCc2ccc(O)cc2)nc2nc(-c3ccco3)nn12 [ZM241385, reference compound]
concentrations for A2B receptor higher than those for A2A receptors (adenosine A2B receptor; ref Linden et al., 1999): 22 fold

binding in hippocampus in the presence of CSC [4]: no binding
Ki [5]: 74.2 nM
decrease in affinity for atypical binding sites [5]: decreased from two to five fold
Structure (SMILES): CCn1c(=O)c2c(nc(/C=C/c3ccc(OC)c(OC)c3)n2C)n(CC)c1=O [KW6002, (E)-1,3-diethyl-8-(3,4-dimethoxystyryl)-7-methyl-3,7-dihydro-1H-purine-2,6,dione, reference compound]

Structure (SMILES): CCCn1c(=O)c2c(nc(/C=C/c3ccc(OC)c(OC)c3)n2C)n(CCC)c1=O [KF17837, (E)-8-(3,4-dimethoxystyryl)-1,3-dipropyl-7-methylxanthine]
loss of potency in inhibiting [3H]CGS21680 binding in hippocampus and cortex versus striatal membranes [1]: 10 fold
A2A/A1 selectivity ([2]; ref Nonaka et al., 1994): 62 fold

Structure (SMILES): Nc1nc2c(cnn2CCc2ccccc2)c2nc(-c3ccco3)nn12 [SCH58261, reference compound]
difference in affinity values between striatum and hippocampus [6]: about 200 fold
IC50 [7]: 16.7 nM
Ki [7]: 4.8 nM

Structure (SMILES): CCCCc1nc(N)c2nc(-n3nccn3)n(C)c2n1 [ST1535, 2 butyl-9-methyl-8-(2H-1,2,3-triazol 2-yl)-9H-purin-6-xylamine]
ratio between A1 and A2A receptors (A1 and A2A receptors): about 10 fold
Hill coefficients in the hippocampus ([6]; hippocampus): 0.6–0.8
difference in affinity values between striatum and hippocampus ([6]; total A2A binding, hippocampus versus striatum): about 5 fold
concentrations for A2B receptor higher than those for A2A receptors (adenosine A2B receptor; ref Stasi et al., 2006): about 3 fold
Hill Slope ([8]; Figure 2, rat striatum, 100 nmol/L DPCPX): -1.007
IC50 ([8]; Figure 2, rat striatum, 100 nmol/L DPCPX, (95% CI)): 118 nM
Ki ([8]; rat striatal membranes, in the presence of DPCPX, mean (95% CI)): 33.7 nM
Hill coefficient, typical striatal receptors ([8]; striatum, typical): around the unit
IC50 ([7]; Figure 1, rat striatum, 30 nmol/L [3H]CGS21680, (95% CI), read-out: IC50): 79.6 nM
Ki ([7]; rat striatal membranes, 30 nM [3H]CGS21680, mean (95% CI) of 3-4 experiments, read-out: Ki values (nM) in striatum, Total): 22.8 nM
Hill coefficient, total striatal receptors ([7]; striatum, total): 0.7
IC50 ([4]; Figure 5, rat hippocampus, 200 nmol/L CSC, (95% CI)): 446 nM
binding in hippocampus in the presence of CSC ([4]; hippocampus, in the presence of CSC): displaced some affinity
Ki ([4]; read-out: Ki values (nM) in hippocampus, Atypical, rat hippocampal membranes, in the presence of CSC, mean (95% CI)): 146 nM
IC50 ([5]; Figure 3, rat striatum, 200 nmol/L CSC, (95% CI)): 256 nM
Ki ([5]; rat striatal membranes, in the presence of CSC, mean (95% CI)): 73 nM
decrease in affinity for atypical binding sites ([5]; striatum, atypical versus total and typical): decreased from two to five fold
